Source: US10898613B2, “Hyaluronic acid gel with a divalent zinc cation” (Nestlé Skin Health SA, priority 2016, dated 2021)

Legend:
[1] = Rheology (elastic modulus G′ within the LVR) of HA gel formulations after autoclaving; format: physicochemical; conditions: after autoclaving (F0~19); 1 mM Zn salt, HA 20 mg/mL
Description: The rheological properties of the formulations were analyzed using an Ahres G2 reometer (measure system PP 40, gap 1.00 mm). Initially a strain sweep was made to find the linear viscoelastic region (LVR) and then the viscoelastic properties were measured within the LVR.

[2] = Zinc release from gels, USP-paddle apparatus with gel containers, Zn content by ICP; format: physicochemical; conditions: zinc released from HA gels of Example 4 with 1 mM zinc salt; 600 ml release medium, 30 rpm, 37° C.
Description: The zinc release from the gels was measured by the USP-paddle apparatus using special gel containers in which the gel was placed. A gel containing 1 mM ZnCl2 was manufactured according to Example 1. The gel was filled into 7 gel containers with a fixed volume of 1 ml. The geometry of the filled gel was a cylinder […] in diameter and 3 mm deep. The gels were covered by a mesh-size plastic net (PA80 m=200 mesh, AB Derma) and a coarse stainless steel net, care was taken to assure that no air was trapped between the gel and the plastic net.
Each gel container was immersed in 600 ml thermostated release medium, stirred at 30 rpm and maintained at 37° C. using a Distek Evolution 6100 (North Brunswick, N.J.). At predetermined time points, gel containers were removed and the Zn content in the container was determined using ICP.
Gels prepared according to example 4 containing zinc chloride (1 mM), zinc gluconate (1 mM) and zinc citrate (1 mM) respectively were analyzed as described in Example 7.

Compound	Effect of Zn on G′ of the gel versus reference swelled in buffer only [1]	time for 25% released [2] [h]
[Cl-].[Cl-].[Zn+2] [zinc chloride]	stabilizing effect	~75
O=C([O-])CC(O)(CC(=O)[O-])C(=O)[O-].O=C([O-])CC(O)(CC(=O)[O-])C(=O)[O-].[Zn+2].[Zn+2].[Zn+2] [zinc citrate]	stabilizing effect	~3
zinc gluconate	stabilizing effect	~24
